Experimental data taken from the kinase profiling compilation of Christmann-Franck et al. (2016).
Values joined by “and” are separate entries in the source; they are usually repeats but may differ in a detail not shown here. Equal entries are not always repeated.

Experiments:
Assay in all cases: radiometric filter-binding kinase assay, Kinase HotSpot
Conditions in all cases: compound 0.5 µM; ATP 10 µM
ADRBK1 (human) = ADRBK1 (human) (UniProt P25098)
AXL (human) = AXL (human) (UniProt P30530)
BMX (human) = BMX (human) (UniProt P51813)
BRSK1 (human) = BRSK1 (human) (UniProt Q8TDC3)
CAMKK2 (human) = CAMKK2 (human) (UniProt Q96RR4)
CDK2 CCNE1 (human) = CDK2 CCNE1 (human) (UniProt P24941+P24864)
CDK6 CCND1 (human) = CDK6 CCND1 (human) (UniProt Q00534+P24385)
CSNK1D (human) = CSNK1D (human) (UniProt P48730)
DCLK2 (human) = DCLK2 (human) (UniProt Q8N568)
DMPK (human) = DMPK (human) (UniProt Q09013)
EGFR (human) = EGFR (human) (UniProt P00533)
EPHA1 (human) = EPHA1 (human) (UniProt P21709)
EPHA7 (human) = EPHA7 (human) (UniProt Q15375)
FYN (human) = FYN (human) (UniProt P06241)
GRK6 (human) = GRK6 (human) (UniProt P43250)
GSG2 (human) = GSG2 (human) (UniProt Q8TF76)
IRAK1 (human) = IRAK1 (human) (UniProt P51617)
LYN (human) = LYN (human) (UniProt P07948)
MAP2K2 (human) = MAP2K2 (human) (UniProt P36507)
MAP3K2 (human) = MAP3K2 (human) (UniProt Q9Y2U5)
MAP3K7 TAB1 (human) = MAP3K7 TAB1 (human) (UniProt O43318+Q15750)
MAP4K4 (human) = MAP4K4 (human) (UniProt O95819)
MARK2 (human) = MARK2 (human) (UniProt Q7KZI7)
MARK3 (human) = MARK3 (human) (UniProt P27448)
NEK11 (human) = NEK11 (human) (UniProt Q8NG66)
NEK4 (human) = NEK4 (human) (UniProt P51957)
OXSR1 (human) = OXSR1 (human) (UniProt O95747)
PASK (human) = PASK (human) (UniProt Q96RG2)
PIM1 (human) = PIM1 (human) (UniProt P11309)
PRKCD (human) = PRKCD (human) (UniProt Q05655)
PRKCH (human) = PRKCH (human) (UniProt P24723)
PRKCI (human) = PRKCI (human) (UniProt P41743)
PRKG1 (human) = PRKG1 (human) (UniProt Q13976)
RAF1 (human) = RAF1 (human) (UniProt P04049)
STK16 (human) = STK16 (human) (UniProt O75716)
STK17A (human) = STK17A (human) (UniProt Q9UEE5)
STK33 (human) = STK33 (human) (UniProt Q9BYT3)
SYK (human) = SYK (human) (UniProt P43405)
TAOK2 (human) = TAOK2 (human) (UniProt Q9UL54)
TSSK1B (human) = TSSK1B (human) (UniProt Q9BXA7)
TSSK2 (human) = TSSK2 (human) (UniProt Q96PF2)
ZAP70 (human) = ZAP70 (human) (UniProt P43403)

Sequence of OXSR1 (human) (O95747 whole entry, looked up): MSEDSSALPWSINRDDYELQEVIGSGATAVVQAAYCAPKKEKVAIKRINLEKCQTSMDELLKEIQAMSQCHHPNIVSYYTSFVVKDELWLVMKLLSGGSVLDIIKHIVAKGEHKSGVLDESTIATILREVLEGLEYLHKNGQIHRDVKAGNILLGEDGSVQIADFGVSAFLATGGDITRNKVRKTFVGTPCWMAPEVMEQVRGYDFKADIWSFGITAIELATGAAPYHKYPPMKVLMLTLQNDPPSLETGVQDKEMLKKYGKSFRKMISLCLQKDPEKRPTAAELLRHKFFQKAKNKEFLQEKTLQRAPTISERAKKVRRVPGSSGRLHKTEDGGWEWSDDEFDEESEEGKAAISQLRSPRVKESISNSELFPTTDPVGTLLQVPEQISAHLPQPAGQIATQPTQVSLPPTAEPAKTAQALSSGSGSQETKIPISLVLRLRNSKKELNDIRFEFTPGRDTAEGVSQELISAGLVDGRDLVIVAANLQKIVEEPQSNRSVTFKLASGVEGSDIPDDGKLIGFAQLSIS
Sequence of PRKCH (human) (P24723 whole entry, looked up): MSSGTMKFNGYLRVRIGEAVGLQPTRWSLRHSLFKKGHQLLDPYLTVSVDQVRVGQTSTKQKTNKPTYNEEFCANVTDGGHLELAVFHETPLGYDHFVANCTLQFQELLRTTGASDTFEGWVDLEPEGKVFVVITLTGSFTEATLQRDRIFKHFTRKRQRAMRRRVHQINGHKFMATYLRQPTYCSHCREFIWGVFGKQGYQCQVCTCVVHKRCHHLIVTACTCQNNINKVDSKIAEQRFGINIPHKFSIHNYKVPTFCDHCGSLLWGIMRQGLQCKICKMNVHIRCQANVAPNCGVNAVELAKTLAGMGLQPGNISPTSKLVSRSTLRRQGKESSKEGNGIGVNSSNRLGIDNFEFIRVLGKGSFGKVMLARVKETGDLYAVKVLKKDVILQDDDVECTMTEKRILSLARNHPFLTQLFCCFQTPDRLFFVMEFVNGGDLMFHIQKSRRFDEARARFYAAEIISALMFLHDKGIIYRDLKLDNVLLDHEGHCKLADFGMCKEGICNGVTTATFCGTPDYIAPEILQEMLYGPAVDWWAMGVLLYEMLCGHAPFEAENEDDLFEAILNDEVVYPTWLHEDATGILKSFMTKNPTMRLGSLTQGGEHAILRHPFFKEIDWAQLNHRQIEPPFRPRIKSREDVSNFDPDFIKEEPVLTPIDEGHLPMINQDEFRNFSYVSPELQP
Sequence of EGFR (human) (P00533 whole entry, looked up): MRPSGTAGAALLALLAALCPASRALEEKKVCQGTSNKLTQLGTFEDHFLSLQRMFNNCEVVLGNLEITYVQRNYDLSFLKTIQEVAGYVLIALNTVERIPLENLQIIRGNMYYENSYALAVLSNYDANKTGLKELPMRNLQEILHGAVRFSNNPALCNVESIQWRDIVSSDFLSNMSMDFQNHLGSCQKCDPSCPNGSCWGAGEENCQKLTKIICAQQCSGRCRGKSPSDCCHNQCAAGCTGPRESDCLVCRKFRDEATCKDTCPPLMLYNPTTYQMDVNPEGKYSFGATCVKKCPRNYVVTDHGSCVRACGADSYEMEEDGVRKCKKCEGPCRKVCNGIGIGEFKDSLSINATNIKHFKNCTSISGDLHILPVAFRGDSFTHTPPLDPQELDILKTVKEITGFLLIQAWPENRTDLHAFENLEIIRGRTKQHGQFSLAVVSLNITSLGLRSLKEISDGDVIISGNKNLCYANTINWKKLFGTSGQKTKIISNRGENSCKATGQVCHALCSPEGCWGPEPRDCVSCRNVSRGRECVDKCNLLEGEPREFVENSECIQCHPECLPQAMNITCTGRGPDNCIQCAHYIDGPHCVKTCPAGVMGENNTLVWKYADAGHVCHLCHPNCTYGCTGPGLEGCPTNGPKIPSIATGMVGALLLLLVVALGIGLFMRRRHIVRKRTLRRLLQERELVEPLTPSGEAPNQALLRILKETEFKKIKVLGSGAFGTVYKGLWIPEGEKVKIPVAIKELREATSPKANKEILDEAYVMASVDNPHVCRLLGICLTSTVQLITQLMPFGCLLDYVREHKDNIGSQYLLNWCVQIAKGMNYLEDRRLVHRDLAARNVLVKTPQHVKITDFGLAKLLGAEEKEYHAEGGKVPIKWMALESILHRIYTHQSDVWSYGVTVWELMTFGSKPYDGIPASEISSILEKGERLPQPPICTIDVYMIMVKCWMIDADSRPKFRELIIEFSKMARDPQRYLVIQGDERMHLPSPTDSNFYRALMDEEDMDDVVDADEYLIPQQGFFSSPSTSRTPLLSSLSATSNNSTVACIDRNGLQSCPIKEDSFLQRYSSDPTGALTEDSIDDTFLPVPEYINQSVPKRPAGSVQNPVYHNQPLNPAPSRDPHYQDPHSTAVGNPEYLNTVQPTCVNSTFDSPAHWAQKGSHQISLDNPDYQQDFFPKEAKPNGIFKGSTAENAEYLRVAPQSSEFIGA
Sequence of PRKCD (human) (Q05655 whole entry, looked up): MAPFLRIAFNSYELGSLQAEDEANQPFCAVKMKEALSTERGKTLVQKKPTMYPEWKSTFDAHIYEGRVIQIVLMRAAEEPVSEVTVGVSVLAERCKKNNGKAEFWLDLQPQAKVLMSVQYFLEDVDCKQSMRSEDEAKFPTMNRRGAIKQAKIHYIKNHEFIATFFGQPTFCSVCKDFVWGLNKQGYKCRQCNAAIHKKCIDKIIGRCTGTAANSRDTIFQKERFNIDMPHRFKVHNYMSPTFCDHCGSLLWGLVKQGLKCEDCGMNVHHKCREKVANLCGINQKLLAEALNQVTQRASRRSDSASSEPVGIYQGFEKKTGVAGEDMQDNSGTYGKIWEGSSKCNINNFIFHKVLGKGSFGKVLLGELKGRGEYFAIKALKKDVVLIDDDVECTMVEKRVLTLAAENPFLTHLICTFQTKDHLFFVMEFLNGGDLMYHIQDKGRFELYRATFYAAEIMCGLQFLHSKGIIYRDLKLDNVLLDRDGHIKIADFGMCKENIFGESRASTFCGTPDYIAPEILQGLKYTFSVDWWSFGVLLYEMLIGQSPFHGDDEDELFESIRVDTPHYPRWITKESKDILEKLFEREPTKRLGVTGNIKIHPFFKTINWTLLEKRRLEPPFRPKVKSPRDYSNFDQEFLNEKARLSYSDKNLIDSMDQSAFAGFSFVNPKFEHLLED
Sequence of PRKCI (human) (P41743 whole entry, looked up): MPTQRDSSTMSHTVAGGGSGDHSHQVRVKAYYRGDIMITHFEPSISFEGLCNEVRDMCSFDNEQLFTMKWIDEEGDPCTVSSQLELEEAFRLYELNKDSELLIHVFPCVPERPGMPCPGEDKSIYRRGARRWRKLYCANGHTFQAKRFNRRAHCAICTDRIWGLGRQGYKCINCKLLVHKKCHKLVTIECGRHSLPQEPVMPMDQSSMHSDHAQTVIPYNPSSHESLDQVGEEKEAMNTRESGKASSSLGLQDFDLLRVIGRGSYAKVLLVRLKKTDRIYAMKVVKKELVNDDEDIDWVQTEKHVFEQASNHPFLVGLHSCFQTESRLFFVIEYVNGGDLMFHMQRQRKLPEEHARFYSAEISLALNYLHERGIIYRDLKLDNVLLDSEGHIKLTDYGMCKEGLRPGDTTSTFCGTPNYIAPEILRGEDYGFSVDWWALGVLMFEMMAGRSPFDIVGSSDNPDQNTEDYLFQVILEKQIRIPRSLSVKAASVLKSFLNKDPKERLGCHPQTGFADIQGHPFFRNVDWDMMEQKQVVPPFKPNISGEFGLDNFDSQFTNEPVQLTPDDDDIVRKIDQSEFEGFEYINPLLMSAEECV
Sequence of MAP4K4 (human) (O95819 whole entry, looked up): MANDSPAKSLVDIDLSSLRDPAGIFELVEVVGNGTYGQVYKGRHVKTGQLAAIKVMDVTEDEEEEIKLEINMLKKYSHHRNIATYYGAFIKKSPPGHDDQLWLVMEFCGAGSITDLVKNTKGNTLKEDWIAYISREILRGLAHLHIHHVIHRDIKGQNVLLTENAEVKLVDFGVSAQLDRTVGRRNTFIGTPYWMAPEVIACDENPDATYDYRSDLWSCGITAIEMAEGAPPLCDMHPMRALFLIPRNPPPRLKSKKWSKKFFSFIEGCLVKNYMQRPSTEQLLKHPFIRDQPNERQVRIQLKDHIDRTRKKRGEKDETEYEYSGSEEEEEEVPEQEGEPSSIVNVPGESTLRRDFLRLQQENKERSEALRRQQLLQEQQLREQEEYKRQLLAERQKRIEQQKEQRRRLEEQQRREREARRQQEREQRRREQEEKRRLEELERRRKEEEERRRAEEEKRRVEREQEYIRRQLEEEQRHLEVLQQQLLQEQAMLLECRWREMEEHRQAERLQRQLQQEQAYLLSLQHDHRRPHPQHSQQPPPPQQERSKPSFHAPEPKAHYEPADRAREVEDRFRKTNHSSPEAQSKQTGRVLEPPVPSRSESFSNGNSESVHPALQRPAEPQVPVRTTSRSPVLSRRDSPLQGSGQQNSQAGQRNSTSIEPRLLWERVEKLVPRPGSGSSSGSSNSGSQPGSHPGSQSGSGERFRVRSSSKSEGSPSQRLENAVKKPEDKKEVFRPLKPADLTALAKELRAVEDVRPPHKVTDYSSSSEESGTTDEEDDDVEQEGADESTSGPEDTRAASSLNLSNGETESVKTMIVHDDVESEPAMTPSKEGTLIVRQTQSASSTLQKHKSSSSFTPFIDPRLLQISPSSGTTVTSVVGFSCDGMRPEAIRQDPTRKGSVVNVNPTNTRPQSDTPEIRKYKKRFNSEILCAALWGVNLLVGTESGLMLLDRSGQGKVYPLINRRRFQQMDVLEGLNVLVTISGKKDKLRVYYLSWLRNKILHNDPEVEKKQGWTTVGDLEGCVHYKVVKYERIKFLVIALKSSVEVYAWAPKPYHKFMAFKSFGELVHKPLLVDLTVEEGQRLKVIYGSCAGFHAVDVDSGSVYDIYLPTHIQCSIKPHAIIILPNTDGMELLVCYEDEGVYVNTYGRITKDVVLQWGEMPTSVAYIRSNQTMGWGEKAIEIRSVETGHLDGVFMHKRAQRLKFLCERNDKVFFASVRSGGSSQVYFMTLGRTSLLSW

`Nc1nnc2[nH]c3ccccc3nc1-2` was tested, and the residual activity (ADRBK1 (human)) was 101%, the residual activity (AXL (human)) was 91.3% and the residual activity (BMX (human)) was 99.5%. The residual activity (BRSK1 (human)) was 91.5%, the residual activity (CAMKK2 (human)) was 98.8% and the residual activity (CDK2 CCNE1 (human)) was 85.5%. For the same compound, the residual activity (CDK6 CCND1 (human)) was 105%, the residual activity (CSNK1D (human)) was 94.2% and the residual activity (DCLK2 (human)) was 94.6%. It also gave a residual activity (DMPK (human)) of 98.4%, a residual activity (EGFR (human)) of 96.4% and a residual activity (EPHA1 (human)) of 100%. It also gave a residual activity (EPHA7 (human)) of 95.3%, a residual activity (FYN (human)) of 96.1% and a residual activity (GRK6 (human)) of 104%. The residual activity (GSG2 (human)) was 82.1%, the residual activity (IRAK1 (human)) was 88.9% and the residual activity (LYN (human)) was 108% and 97%. It also gave a residual activity (MAP2K2 (human)) of 104%, a residual activity (MAP3K2 (human)) of 92.6% and a residual activity (MAP3K7 TAB1 (human)) of 100%. The residual activity (MAP4K4 (human)) was 76.2%, the residual activity (MARK2 (human)) was 110% and the residual activity (MARK3 (human)) was 102%. For the same compound, the residual activity (NEK11 (human)) was 110%, the residual activity (NEK4 (human)) was 97.8% and the residual activity (OXSR1 (human)) was 92.7%. The residual activity (PASK (human)) was 93.7%, the residual activity (PIM1 (human)) was 94% and the residual activity (PRKCD (human)) was 98.3%. The residual activity (PRKCH (human)) was 87.9%, the residual activity (PRKCI (human)) was 103% and the residual activity (PRKG1 (human)) was 93% and 97.7%. For the same compound, the residual activity (RAF1 (human)) was 94.4%, the residual activity (STK16 (human)) was 91.9% and the residual activity (STK17A (human)) was 95.2%. The residual activity (STK33 (human)) was 98.7%, the residual activity (SYK (human)) was 100% and the residual activity (TAOK2 (human)) was 103%. For the same compound, the residual activity (TSSK1B (human)) was 95.4%, the residual activity (TSSK2 (human)) was 110% and the residual activity (ZAP70 (human)) was 102%.

Compound `CC(=O)O/N=C1\C(=C2\C(=O)Nc3cc(Br)ccc32)Nc2ccccc21` has a residual activity (ADRBK1 (human)) of 108%, a residual activity (AXL (human)) of 88% and a residual activity (BMX (human)) of 67.2%. It also gave a residual activity (BRSK1 (human)) of 43.5%, a residual activity (CAMKK2 (human)) of 102% and a residual activity (CDK2 CCNE1 (human)) of 24.7%. For the same compound, the residual activity (CDK6 CCND1 (human)) was 53.2%, the residual activity (CSNK1D (human)) was 92.3% and the residual activity (DCLK2 (human)) was 90.2%. The residual activity (DMPK (human)) was 95.4%, the residual activity (EGFR (human)) was 91.1% and the residual activity (EPHA1 (human)) was 83.2%. The residual activity (EPHA7 (human)) was 97.9%, the residual activity (FYN (human)) was 20.9% and the residual activity (GRK6 (human)) was 88.5%. The residual activity (GSG2 (human)) was 85.5%, the residual activity (IRAK1 (human)) was 67.4% and the residual activity (LYN (human)) was 28.1% and 52.4%. For the same compound, the residual activity (MAP2K2 (human)) was 83.1%, the residual activity (MAP3K2 (human)) was 93.1% and the residual activity (MAP3K7 TAB1 (human)) was 97.4%. For the same compound, the residual activity (MAP4K4 (human)) was 30.2%, the residual activity (MARK2 (human)) was 74.9% and the residual activity (MARK3 (human)) was 85.4%. For the same compound, the residual activity (NEK11 (human)) was 110%, the residual activity (NEK4 (human)) was 85.6% and the residual activity (OXSR1 (human)) was 112%. For the same compound, the residual activity (PASK (human)) was 86.2%, the residual activity (PIM1 (human)) was 79.8% and the residual activity (PRKCD (human)) was 97%. For the same compound, the residual activity (PRKCH (human)) was 95.4%, the residual activity (PRKCI (human)) was 74.3% and the residual activity (PRKG1 (human)) was 82.7% and 86.1%. The residual activity (RAF1 (human)) was 100%, the residual activity (STK16 (human)) was 76.5% and the residual activity (STK17A (human)) was 72.7%. The residual activity (STK33 (human)) was 70.3%, the residual activity (SYK (human)) was 88.3% and the residual activity (TAOK2 (human)) was 84.4%. It also gave a residual activity (TSSK1B (human)) of 92.4%, a residual activity (TSSK2 (human)) of 101% and a residual activity (ZAP70 (human)) of 102%.

For `Cn1nc2c3c(cccc31)C(=O)c1ccccc1-2`, the residual activity (ADRBK1 (human)) was 103%, the residual activity (AXL (human)) was 104% and the residual activity (BMX (human)) was 101%. For the same compound, the residual activity (BRSK1 (human)) was 92.5%, the residual activity (CAMKK2 (human)) was 74.9% and the residual activity (CDK2 CCNE1 (human)) was 89.4%. The residual activity (CDK6 CCND1 (human)) was 88%, the residual activity (CSNK1D (human)) was 20.8% and the residual activity (DCLK2 (human)) was 94.2%. For the same compound, the residual activity (DMPK (human)) was 107%, the residual activity (EGFR (human)) was 105% and the residual activity (EPHA1 (human)) was 94.8%. The residual activity (EPHA7 (human)) was 104%, the residual activity (FYN (human)) was 93.8% and the residual activity (GRK6 (human)) was 89.2%. The residual activity (GSG2 (human)) was 53.1%, the residual activity (IRAK1 (human)) was 99.6% and the residual activity (LYN (human)) was 96.1% and 97.7%. For the same compound, the residual activity (MAP2K2 (human)) was 102%, the residual activity (MAP3K2 (human)) was 103% and the residual activity (MAP3K7 TAB1 (human)) was 83.9%. For the same compound, the residual activity (MAP4K4 (human)) was 85.1%, the residual activity (MARK2 (human)) was 94.1% and the residual activity (MARK3 (human)) was 96.6%. For the same compound, the residual activity (NEK11 (human)) was 105%, the residual activity (NEK4 (human)) was 89.8% and the residual activity (OXSR1 (human)) was 102%. It also gave a residual activity (PASK (human)) of 94.6%, a residual activity (PIM1 (human)) of 80.3% and a residual activity (PRKCD (human)) of 92.3%. For the same compound, the residual activity (PRKCH (human)) was 94.3%, the residual activity (PRKCI (human)) was 98.5% and the residual activity (PRKG1 (human)) was 93.7% and 96%. It also gave a residual activity (RAF1 (human)) of 87%, a residual activity (STK16 (human)) of 83.3% and a residual activity (STK17A (human)) of 83.7%. The residual activity (STK33 (human)) was 81.3%, the residual activity (SYK (human)) was 94.8% and the residual activity (TAOK2 (human)) was 104%. The residual activity (TSSK1B (human)) was 98.4%, the residual activity (TSSK2 (human)) was 95.4% and the residual activity (ZAP70 (human)) was 95.1%.
